One block for each molecule: values may come before it.
System: OVCAR-8 complex spheroid, growth inhibition
Test: Anticancer human tumor OVCAR-8 cell line growth inhibition [Asc];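 also: spheroids exposed to agents for 7 days before readout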;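 as to viability, T/C: percent viability relative to DMSO vehicle wells taken as 100%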
Details: for viability, T/C: stronger effect = lower value
Method in brief: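 Tumor cells were grown as multicellular spheroids with stromal HUVEC and mesenchymal stem cells and treated singly or in combination. Concentrations fell in half-log steps from the clinical Cmax, or from 10 microM where none was known.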

IC50 (compound alone, run of 11/07/2022): > 3 µM | IC50 (curve of compound): > 3 µM
Compound: CCN1C(C(=O)NC23CCC(C(=O)O)(CC2)CC3)C(c2cccc(Cl)c2F)C2(C(=O)Nc3cc(Cl)ccc32)C12CCCCC2 (centres undefined)
viability, T/C (compound 0.03 µM): 93.4% [middle of 9 runs] | viability, T/C (compound 0.949 µM): 100% [middle of 9 runs] | viability, T/C (compound 3 µM): 104% [middle of 9 runs]

IC50 (curve of first compound, second compound 0.00316 µM): > 3 µM | IC50 (curve of first compound, second compound 0.01 µM): > 3 µM | IC50 (curve of first compound, second compound 0.0316 µM): > 3 µM | IC50 (curve of first compound, second compound 0.1 µM): > 3 µM | IC50 (curve of first compound, second compound 0.316 µM): > 3 µM | IC50 (curve of first compound, second compound 1 µM): > 3 µM
Compound: Cc1nc(N2CCC3(CC2)COC(C)C3N)c(CO)nc1Sc1ccnc(N)c1Cl (centres undefined) + CNC(C)C(=O)NC1CN(S(=O)(=O)c2cccc(S(=O)(=O)N3CCC4CCC(C(=O)NC(c5ccccc5)c5ccccc5)N4C(=O)C(NC(=O)C(C)NC)C3)c2)CCC2CCC(C(=O)NC(c3ccccc3)c3ccccc3)N2C1=O
viability, T/C (second compound 0.00316 µM, first compound 0.00949 µM): 130% | viability, T/C (second compound 0.00316 µM, first compound 0.03 µM): 136% | viability, T/C (second compound 0.00316 µM, first compound 0.0949 µM): 208% | viability, T/C (second compound 0.00316 µM, first compound 0.3 µM): 235% | viability, T/C (second compound 0.00316 µM, first compound 0.949 µM): 260% | viability, T/C (second compound 0.00316 µM, first compound 3 µM): 245% | viability, T/C (second compound 0.01 µM, first compound 0.00949 µM): 111% | viability, T/C (second compound 0.01 µM, first compound 0.03 µM): 130% | viability, T/C (second compound 0.01 µM, first compound 0.0949 µM): 163% | viability, T/C (second compound 0.01 µM, first compound 0.3 µM): 251% | viability, T/C (second compound 0.01 µM, first compound 0.949 µM): 263% | viability, T/C (second compound 0.01 µM, first compound 3 µM): 237% | viability, T/C (second compound 0.0316 µM, first compound 0.00949 µM): 93% | viability, T/C (second compound 0.0316 µM, first compound 0.03 µM): 130% | viability, T/C (second compound 0.0316 µM, first compound 0.0949 µM): 166% | viability, T/C (second compound 0.0316 µM, first compound 0.3 µM): 205% | viability, T/C (second compound 0.0316 µM, first compound 0.949 µM): 248% | viability, T/C (second compound 0.0316 µM, first compound 3 µM): 224% | viability, T/C (second compound 0.1 µM, first compound 0.00949 µM): 86.7% | viability, T/C (second compound 0.1 µM, first compound 0.03 µM): 111% | viability, T/C (second compound 0.1 µM, first compound 0.0949 µM): 155% | viability, T/C (second compound 0.1 µM, first compound 0.3 µM): 166% | viability, T/C (second compound 0.1 µM, first compound 0.949 µM): 208% | viability, T/C (second compound 0.1 µM, first compound 3 µM): 171% | viability, T/C (second compound 0.316 µM, first compound 0.00949 µM): 70.7% | viability, T/C (second compound 0.316 µM, first compound 0.03 µM): 82.6% | viability, T/C (second compound 0.316 µM, first compound 0.0949 µM): 109% | viability, T/C (second compound 0.316 µM, first compound 0.3 µM): 169% | viability, T/C (second compound 0.316 µM, first compound 0.949 µM): 140% | viability, T/C (second compound 0.316 µM, first compound 3 µM): 110% | viability, T/C (second compound 1 µM, first compound 0.00949 µM): 81.5% | viability, T/C (second compound 1 µM, first compound 0.03 µM): 95.1% | viability, T/C (second compound 1 µM, first compound 0.0949 µM): 119% | viability, T/C (second compound 1 µM, first compound 0.3 µM): 123% | viability, T/C (second compound 1 µM, first compound 0.949 µM): 116% | viability, T/C (second compound 1 µM, first compound 3 µM): 75.1%

IC50 (curve of first compound, second compound 0.00949 µM): > 0.1 µM | IC50 (curve of first compound, second compound 0.03 µM): > 0.1 µM | IC50 (curve of first compound, second compound 0.0949 µM): > 0.1 µM | IC50 (curve of first compound, second compound 0.3 µM): > 0.1 µM | IC50 (curve of first compound, second compound 0.949 µM): > 0.1 µM | IC50 (curve of first compound, second compound 3 µM): > 0.1 µM
Compound: Cn1ncnc1[C@H]1c2n[nH]c(=O)c3cc(F)cc(c23)N[C@@H]1c1ccc(F)cc1 + CCN1C(C(=O)NC23CCC(C(=O)O)(CC2)CC3)C(c2cccc(Cl)c2F)C2(C(=O)Nc3cc(Cl)ccc32)C12CCCCC2
viability, T/C (second compound 0.00949 µM, first compound 0.000316 µM): 90.7% | viability, T/C (second compound 0.00949 µM, first compound 0.001 µM): 82.6% | viability, T/C (second compound 0.00949 µM, first compound 0.00316 µM): 105% | viability, T/C (second compound 0.00949 µM, first compound 0.01 µM): 111% | viability, T/C (second compound 0.00949 µM, first compound 0.0316 µM): 105% | viability, T/C (second compound 0.00949 µM, first compound 0.1 µM): 128% | viability, T/C (second compound 0.03 µM, first compound 0.000316 µM): 96% | viability, T/C (second compound 0.03 µM, first compound 0.001 µM): 94.3% | viability, T/C (second compound 0.03 µM, first compound 0.00316 µM): 104% | viability, T/C (second compound 0.03 µM, first compound 0.01 µM): 109% | viability, T/C (second compound 0.03 µM, first compound 0.0316 µM): 107% | viability, T/C (second compound 0.03 µM, first compound 0.1 µM): 126% | viability, T/C (second compound 0.0949 µM, first compound 0.000316 µM): 89.8% | viability, T/C (second compound 0.0949 µM, first compound 0.001 µM): 93.7% | viability, T/C (second compound 0.0949 µM, first compound 0.00316 µM): 110% | viability, T/C (second compound 0.0949 µM, first compound 0.01 µM): 95.5% | viability, T/C (second compound 0.0949 µM, first compound 0.0316 µM): 127% | viability, T/C (second compound 0.0949 µM, first compound 0.1 µM): 101% | viability, T/C (second compound 0.3 µM, first compound 0.000316 µM): 87.8% | viability, T/C (second compound 0.3 µM, first compound 0.001 µM): 110% | viability, T/C (second compound 0.3 µM, first compound 0.00316 µM): 97.7% | viability, T/C (second compound 0.3 µM, first compound 0.01 µM): 97% | viability, T/C (second compound 0.3 µM, first compound 0.0316 µM): 106% | viability, T/C (second compound 0.3 µM, first compound 0.1 µM): 123% | viability, T/C (second compound 0.949 µM, first compound 0.000316 µM): 111% | viability, T/C (second compound 0.949 µM, first compound 0.001 µM): 92% | viability, T/C (second compound 0.949 µM, first compound 0.00316 µM): 95.3% | viability, T/C (second compound 0.949 µM, first compound 0.01 µM): 97.1% | viability, T/C (second compound 0.949 µM, first compound 0.0316 µM): 109% | viability, T/C (second compound 0.949 µM, first compound 0.1 µM): 126% | viability, T/C (second compound 3 µM, first compound 0.000316 µM): 98.6% | viability, T/C (second compound 3 µM, first compound 0.001 µM): 94.3% | viability, T/C (second compound 3 µM, first compound 0.00316 µM): 104% | viability, T/C (second compound 3 µM, first compound 0.01 µM): 117% | viability, T/C (second compound 3 µM, first compound 0.0316 µM): 115% | viability, T/C (second compound 3 µM, first compound 0.1 µM): 139%
